The source of these data is patent publication US20230391796A1, “GLYCOSIDASE INHIBITORS AND USES THEREOF” (UNIVERSIDAD DE SEVILLA (US) -UNIVERSITY OF SEVILLE (US), priority 2020, published 2023).

Common to all, as to format: biochemical
The target of test [1] is β-N-acetylglucosaminidase (from human placenta). As to the kind of experiment: Inhibition assay against commercial β-N-acetylglucosaminidase (human placenta), p-nitrophenyl N-acetyl-β-D-glucosaminide substrate. As to conditions: pH 5.5, 37° C.; average of three determinations ± s.e.m.; read-out: Human placenta Hex. Here is the method:
(§1) Inhibition Assays Against Commercial β-N-acetylglucosaminidases
(§2) Inhibition constant (Ki) values were determined by spectrophotometrically measuring the residual hydrolytic activities of the glycosidases against p-nitrophenyl N-acetyl-β-D-glucosaminide. […] Each assay was performed in phosphate-citrate buffer and the reactions were initiated by addition of the enzyme to a solution of the substrate in the absence or presence of various inhibitor concentrations. The mixture was incubated for 10-30 min at 37° C. and the reaction was quenched by addition of 1 M Na2CO3. Reaction times were appropriate to obtain 10-20% conversion of the substrate in order to achieve linear rates. The absorbance of the resulting mixture was determined at 405 nm. Approximate values of Ki were determined using a fixed concentration of substrate (around the Km value for the different glycosidases) and various inhibitor concentrations. Full Ki determinations and enzyme inhibition mode were determined from the slope of Lineweaver-Burk plots and double reciprocal analysis using a Microsoft Office Excel 2007 program.

For test [2], the target named is T1, Recombinant Human Hexosaminidase A (HexA) (Homo sapiens, UniProt P06865).
T1 construct: purchased R&D Systems 6237-GH-020
T1 sequence (P06865 89-529): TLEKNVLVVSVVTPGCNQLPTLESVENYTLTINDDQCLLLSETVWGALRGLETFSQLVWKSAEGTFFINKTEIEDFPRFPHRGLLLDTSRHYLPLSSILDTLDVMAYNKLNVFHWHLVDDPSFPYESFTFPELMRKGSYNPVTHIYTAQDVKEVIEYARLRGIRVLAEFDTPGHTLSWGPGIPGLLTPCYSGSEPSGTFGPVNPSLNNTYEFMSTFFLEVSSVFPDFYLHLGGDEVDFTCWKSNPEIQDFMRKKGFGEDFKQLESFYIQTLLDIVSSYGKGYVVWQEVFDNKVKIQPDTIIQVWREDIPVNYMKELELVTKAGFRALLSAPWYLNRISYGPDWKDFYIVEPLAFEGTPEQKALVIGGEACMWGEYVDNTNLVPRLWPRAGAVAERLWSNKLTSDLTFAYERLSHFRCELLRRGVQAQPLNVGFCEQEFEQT
As to the kind of experiment: Inhibition assay against rhHexA, 4-methylumbelliferone-N-acetyl-β-D-glucosaminide fluorescence. The settings on record: IC50 for lysosomal hHexA; NI = no inhibition detected at 200 μM. As to the method:
Inhibition Assays Against rhHexA
Human Hexosaminidase A (HexA) enzyme, purchased from R&D Systems (cat# 6237-GH-020), were determined by measuring the fluorescent signal corresponding to the rate of hydrolytic activity against the commercially available artificial substrate, 4-Methylumbelliferone-N-acetyl-β-D-glucosaminide. HexA activity assays were performed in a buffer of 100 mM sodium citrate, 250 NaCl, pH 4.5 and 1.0 nM [HexA], then stopped after 20 minutes with a solution of 1.0 M Tris, pH 9.5 to enhance fluorescent signal. Preliminary experiments have shown that reaction rates are linear for 20 minutes after substrate addition, and that 1.0 M Tris at pH 9.5 is sufficient for stopping activity, as signal is stable after stopping. Inhibition assays were run in the presence or absence of various concentrations of inhibitors and at a fixed substrate concentration of 100 μM and 1% DMSO. First, inhibitor was serially diluted to the desired range of concentrations in 2% DMSO buffer. Next, 25 μL, of inhibitor solutions at various concentrations in 2% DMSO Buffer was added to 25 μL, of 4.0 nM enzyme and allowed to incubate at 25° C. for 5 minutes. 50 μL of 200 μM and 1% DMSO substrate was then added and allowed to react for 20 minutes. 100 μL of stop solution was added to reaction mixture, and immediately mixed and aliquoted in 45 μL triplicates to a CORNING 384 well black plate. Fluorescence signal was measured in a BioTek Neo 2 Plate reader set at excitation and emission wavelengths of 355 and 450 nm, respectively. % Activity was subsequently calculated for each inhibitor concentration against the fluorescence signal of uninhibited HexA. […]

The target of another test is T2, hOGA (Homo sapiens, UniProt O60502).
T2 sequence (O60502 1-916): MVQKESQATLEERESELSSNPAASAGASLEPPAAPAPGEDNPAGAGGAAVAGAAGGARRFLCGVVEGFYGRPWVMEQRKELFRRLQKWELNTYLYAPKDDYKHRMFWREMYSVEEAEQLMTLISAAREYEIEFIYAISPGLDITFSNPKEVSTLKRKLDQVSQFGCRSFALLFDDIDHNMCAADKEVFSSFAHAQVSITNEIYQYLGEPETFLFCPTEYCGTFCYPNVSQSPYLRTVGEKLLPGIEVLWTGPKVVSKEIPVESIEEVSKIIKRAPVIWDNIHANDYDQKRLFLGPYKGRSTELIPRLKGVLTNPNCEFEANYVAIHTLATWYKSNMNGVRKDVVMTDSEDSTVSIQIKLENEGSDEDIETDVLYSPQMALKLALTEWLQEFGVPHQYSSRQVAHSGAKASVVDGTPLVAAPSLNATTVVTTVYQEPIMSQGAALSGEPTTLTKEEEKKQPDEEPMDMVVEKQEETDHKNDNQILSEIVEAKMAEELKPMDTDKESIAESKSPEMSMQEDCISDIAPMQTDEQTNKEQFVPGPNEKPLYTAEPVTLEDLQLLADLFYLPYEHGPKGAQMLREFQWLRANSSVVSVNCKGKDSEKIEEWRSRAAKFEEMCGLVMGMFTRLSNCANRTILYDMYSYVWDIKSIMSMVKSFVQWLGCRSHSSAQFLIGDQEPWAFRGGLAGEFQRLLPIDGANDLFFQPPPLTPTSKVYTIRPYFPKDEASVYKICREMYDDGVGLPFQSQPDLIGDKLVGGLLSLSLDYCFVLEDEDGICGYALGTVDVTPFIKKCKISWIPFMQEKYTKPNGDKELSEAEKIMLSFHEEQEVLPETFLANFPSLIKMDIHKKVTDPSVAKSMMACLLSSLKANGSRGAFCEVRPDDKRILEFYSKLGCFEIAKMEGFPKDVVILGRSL
Briefly: Inhibition assay against hOGA, resorufin N-acetyl-β-D-glucosaminide fluorescence. As to conditions: 0.2 nM hOGA, 25 μM substrate, pH 7.1; Morrison Ki. Here is the method:
Inhibition Assays Against hOGA
Km=25 μM was measured with these conditions. Inhibition assays were run at 0.2 nM [hOGA] in the same buffer, in the presence or absence of various concentrations of inhibitors and at a fixed substrate concentration of 25 μM and 1% DMSO. First, inhibitor was serially diluted to the desired range of concentrations in 2% DMSO buffer. Next, 50 μL of inhibitor solutions at various concentrations in 2% DMSO Buffer was added to 50 μL of 0.8 nM enzyme and allowed to incubate at 25° C. for 5 minutes. 100 uL of 50 μM and 1% DMSO substrate was then added and reaction mixture was immediately mixed and aliquoted in 45 μL triplicates to a CORNING 384 well black plate. Fluorescence signal was measured continuously for 20 minutes at 37° C. in a BioTek Neo 2 Plate reader set at excitation and emission wavelengths of 572 and 610 nm, respectively. Max reaction rates for all inhibitor concentrations were calculated within Gen5 BioTek reader software. % Activity was subsequently calculated for each inhibitor concentration against the max reaction rate of uninhibited hOGA. GraphPad Prism 2016 was used to approximate the Morrison Ki values for each inhibitor.

Test [3] deals with β-N-acetylglucosaminidase (from jack bean). Briefly: Inhibition assay against commercial β-N-acetylglucosaminidase (jack bean), p-nitrophenyl N-acetyl-β-D-glucosaminide substrate. As to conditions: pH 5.5, 37° C.; average of three determinations ± s.e.m.; NI = no inhibition detected at 200 μM; read-out: Jack beans Hex. As to the method: as §1, §2
Test [4] has as its target β-N-acetylglucosaminidase (from bovine kidney). Briefly: Inhibition assay against commercial β-N-acetylglucosaminidase (bovine kidney), p-nitrophenyl N-acetyl-β-D-glucosaminide substrate. The settings on record: pH 5.5, 37° C.; average of three determinations ± s.e.m.; NI = no inhibition detected at 200 μM; read-out: Bovine kidney Hex. As to the method:
as §1, §2

Structures can show the parent of a compound that is named as a salt.

A word on the IC50: it is the concentration that gives 50% inhibition.

Turning to `CCCCN=C1SCC2C(O)C(O)C(NC(C)=O)CN12` (stereo not drawn) [Compound 1, 2-Acetamido-5-N,6-S-(N′-butyliminomethylidene)-1,2-dideoxy-6-thionojirimycin Hydrochloride], the Ki in test [1] was 240 ± 20 nM; on hOGA, 24.1 nM; in test [3] it was 850 ± 60 nM; in test [4], 570 ± 40 nM. Besides, the concentration for half-maximal inhibition (IC50) in test [2] turned out to be 990 nM.

With `CCCCCCCCN=C1SCC2C(O)C(O)C(NC(C)=O)CN12` (stereo not drawn) [Compound 2, 2-Acetamido-1,2-dideoxy-5-N,6-S-(N′-octyliminomethylidene)-6-thionojirimycin Hydrochloride], the Ki stood at 240 ± 20 nM in test [1], 20.2 nM at hOGA, 1300 ± 100 nM in test [3] and 190 ± 20 nM in test [4]. For the same compound, the IC50 in test [2] worked out at 580 nM.

For the compound `CC(=O)N[C@H]1CN2/C(=N/c3ccccc3)SC[C@@H]2[C@@H](O)[C@@H]1O` [Compound 3, 2-Acetamido-1,2-dideoxy-5-N,6-S-(N′-phenyliminomethylidene)-6-thionojirimycin Hydrochloride], the Ki in test [1] amounted to 580 ± 40 nM; at hOGA, 399 nM; in test [3] it was 2800 ± 200 nM; in test [4], 700 ± 50 nM. Further, in test [2], the IC50 came to 410 nM.

With `CC(=O)N[C@H]1CN2/C(=N/Cc3cccc4ccccc34)SC[C@@H]2[C@@H](O)[C@@H]1O` [Compound 5, 2-Acetamido-5-N,6-S-(N′-1-naphthylmethyliminomethylidene)-1,2-dideoxy-6-thionojirimycin Hydrochloride], the Ki at hOGA was found to be 0.292 nM; in test [3] it was 2400 ± 200 nM; in test [4] it was 890 ± 800 nM.

Regarding `CC(=O)N[C@H]1CN2/C(=N/Cc3ccc(F)cc3)SC[C@@H]2[C@@H](O)[C@@H]1O` [Compound 6, 2-N-Acetyl-5-N,6-S-(N′-p-fluorobenzyliminomethylidene)-1,2-dideoxy-6-thionojirimycin Hydrochloride], the Ki in test [1] is 280 ± 20 nM; on hOGA, 53.8 nM; in test [3], 3200 ± 300 nM; in test [4], 1500 ± 200 nM.

As to `COc1ccc(C/N=C2\SC[C@@H]3[C@@H](O)[C@H](O)[C@@H](NC(C)=O)CN23)cc1` [Compound 7, 2-N-Acetyl-5-N,6-S-(N′-p-methoxybenzyliminomethylidene)-1,2-dideoxy-6-thionojirimycin Hydrochloride], the Ki stood at 730 ± 40 nM in test [1], 27.8 nM on hOGA, 2200 ± 100 nM in test [3] and 1200 ± 100 nM in test [4].

Regarding `CC(=O)N[C@H]1CN2/C(=N/Cc3ccc(C(F)(F)F)cc3)SC[C@@H]2[C@@H](O)[C@@H]1O` [Compound 8, 2-Acetamido-5-N,6-S-(N′-p-trifluoromethylbenzyliminomethylidene)-1,2-dideoxy-6-thionojirimycin hydrochloride], the Ki in test [1] is 400 ± 30 nM; on hOGA, 47.7 nM; in test [3] it was 1500 ± 100 nM; in test [4], 430 ± 40 nM.

For `CC(=O)N[C@H]1CN2/C(=N/Cc3ccccc3CN=[N+]=[N-])SC[C@@H]2[C@@H](O)[C@@H]1O` [Compound 9, 2-Acetamido-5-N,6-S-(N′-o-azidomethylbenzyliminomethylidene)-1,2-dideoxy-6-thionojirimycin Hydrochloride], the Ki on hOGA was 0.278 nM; in test [3] it was 3070 ± 300 nM; in test [4], 910 ± 90 nM.

As to `CC(=O)N[C@H]1CN2/C(=N/Cc3cccc(CN=[N+]=[N-])c3)SC[C@@H]2[C@@H](O)[C@@H]1O` [Compound 10, 2-Acetamido-5-N,6-S-(N′-m-azidomethylbenzyliminomethylidene)-1,2-dideoxy-6-thionojirimycin Hydrochloride], the Ki was 0.223 nM on hOGA, 3130 ± 800 nM in test [3] and 830 ± 60 nM in test [4].

Take `CC(=O)N[C@H]1CN2/C(=N/Cc3ccc(CN=[N+]=[N-])cc3)SC[C@@H]2[C@@H](O)[C@@H]1O` [Compound 11, 2-Acetamido-5-N,6-S-(N′-p-azidomethylbenzyliminomethylidene)-1,2-dideoxy-6-thionojirimycin Hydrochloride]: the Ki worked out at 0.438 nM at hOGA, 3400 ± 800 nM in test [3] and 720 ± 50 nM in test [4].

Consider `CC(=O)N[C@H]1CN2/C(=N/CCc3ccccc3)SC[C@@H]2[C@@H](O)[C@@H]1O` [Compound 12, 2-Acetamido-5-N,6-S-(N′-2-phenylethyliminomethylidene)-1,2-dideoxy-6-thionojirimycin Hydrochloride], for which the Ki on hOGA came to 0.918 nM; in test [3], 2450 ± 320 nM; in test [4] it was 1420 ± 120 nM.
